Data as given in patent EP0505047B1, “Rearranged taxol compounds and method of using in testing of in vivo activity” (VIRGINIA TECH INTELLECTUAL PROPERTIES, INC., priority 1991, dated 1992).
Values after ≈ are worked out from the molar mass of the structure shown.

Key:
KB cells = test: KB cell culture assay; type: cell-based; conditions: ED₅₀ of less than 4.0 indicates activity; for EC50: Homo sapiens, read-out: ED⁵⁰ (µg/ml) cell culture
Experimental: Taxol (1), the Meerwein product (4), the acetyl chloride product (7), and A-nor-taxol (10) were tested in KB cell culture assays. […]

tubulin = tubulin depolymerization assay; type: biochemical; conditions: for IC50: in vitro, read-out: ID₅₀(µM) in tubulin depolymerization assay
Source text: Taxol (1), the Meerwein product (4), the acetyl chloride product (7), and A-Nor-Taxol (10) were also subjected to tubulin depolymerization assays with the results presented in Table XVI below.

Compound | EC50 (KB cells) | IC50 (tubulin) | activity in the tubulin depolymerization assay compared with taxol (tubulin; result in words) | ED⁵⁰ (µg/ml) cell culture (KB cells)
C=C(C)C12CC(OC(=O)C(O)C(NC(=O)c3ccccc3)c3ccccc3)C(C)=C1C(OC(C)=O)C(=O)C1(C)C(O)CC3OCC3(OC(C)=O)C1C2OC(=O)c1ccccc1 (stereo not drawn) [A-Nortaxol (10), A-Nortaxol] | 2 µg/mL (≈ 2.39 µM) | 0.9 µM | very similar to taxol | 
acetylated A-Nor-D-seco-taxol [Acetyl Chloride product (7)] |  |  |  | 2.5 µg/mL
CC(=O)O[C@H]1C(=O)[C@@]2(C)[C@H]([C@H](OC(=O)c3ccccc3)[C@]3(O)C[C@H](OC(=O)[C@H](O)[C@@H](NC(=O)c4ccccc4)c4ccccc4)C(C)=C1C3(C)C)[C@]1(OC(C)=O)CO[C@@H]1C[C@@H]2O [Taxol (1), taxol] | 1e-05 µg/mL (≈ 1.17e-05 µM) | 0.3 µM |  | 
